Paper PMC10850145, “Hormonal steroids induce multidrug resistance and stress response genes in Neisseria gonorrhoeae by binding to MtrR” (Nature Communications, 2024)
“And” between values parts separate entries of the source, which are not always exact repeats. Equal values may be shown once. Read-outs that look alike come from different tables or passages of the source.

Tested on: mtrC-lacZ expression
Assay type: cell-based, Neisseria gonorrhoeae
Settings: for Plate-6 (Testosterone) Miller units, Mean / Plate-6 (Testosterone) Miller units: left (mtrC) half of sheet; for β-galactosidase activity, Mean / β-galactosidase activity, single replicate: mtrCDE block (c1-c37), ΔmtrR + mtrR R176E in trans
[1] = WT, testosterone 6.25 µM, right block Plate-4
[2] = WT, testosterone 25 µM, right block Plate-4
[3] = WT, testosterone 50 µM, right block Plate-4
[4] = fourth strain (lower plate half, wells 7-12; not named), testosterone 6.25 µM, right block Plate-4
[5] = fourth strain (lower plate half, wells 7-12; not named), testosterone 12.5 µM, right block Plate-4
[6] = mtrC-lacZ, ΔmtrR + mtrR D171A in trans, 6.25 µM hormone, single replicate
[7] = mtrC-lacZ, ΔmtrR + mtrR D171A in trans, 12.5 µM hormone, single replicate
[8] = mtrC-lacZ, ΔmtrR + mtrR D171A in trans, 25 µM hormone, single replicate
[9] = mtrC-lacZ, ΔmtrR + mtrR D171A in trans, 50 µM hormone, single replicate
[10] = mtrC-lacZ, ΔmtrR + mtrR WT in trans, 6.25 µM hormone, single replicate
[11] = mtrC-lacZ, ΔmtrR + mtrR WT in trans, 12.5 µM hormone, single replicate
[12] = mtrC-lacZ, ΔmtrR + mtrR WT in trans, 25 µM hormone, single replicate
[13] = mtrC-lacZ, ΔmtrR + mtrR WT in trans, 50 µM hormone, single replicate
[14] = mtrCDE, fourth strain (lower plate half, wells 7-12; not named), testosterone 1 µM, left block Plate-4
[15] = mtrCDE, fourth strain (lower plate half, wells 7-12; not named), testosterone 10 µM, left block Plate-4
[16] = mtrCDE, fourth strain (lower plate half, wells 7-12; not named), testosterone 25 µM, left block Plate-4
[17] = mtrCDE, fourth strain (lower plate half, wells 7-12; not named), testosterone 50 µM, left block Plate-4
[18] = mtrCDE, fourth strain (lower plate half, wells 7-12; not named), testosterone 100 µM, left block Plate-4

## C[C@]12CC[C@H]3[C@@H](CCC4=CC(=O)CC[C@@]43C)[C@@H]1CC[C@@H]2O [Testosterone, testosterone]
6.25 µM hormone, plate columns 1-6 (WT), mean of plate rows 1-4 (mtrC)
  Miller units, Mean: 141 Miller units
6.25 µM hormone, plate columns 1-6 (WT), plate rows 1-4 (mtrC), single well
  Miller units: 164 Miller units and 134 Miller units and 127 Miller units and 139 Miller units
6.25 µM hormone, plate columns 7-12 (second strain not given), plate rows 1-4 (mtrC), single well
  Miller units: 276 Miller units and 252 Miller units and 246 Miller units and 285 Miller units
6.25 µM hormone, plate columns 7-12 (second strain), mean of plate rows 1-4 (mtrC)
  Miller units, Mean: 265 Miller units
6.25 µM, plate column 3, mean of plate rows 5-8
  Plate-6 (Testosterone) Miller units, Mean: 43 Miller units
6.25 µM, plate column 3, plate rows 5-8, single wells
  Plate-6 (Testosterone) Miller units: 39 Miller units and 46 Miller units and 47 Miller units
6.25 µM, plate column 9, mean of plate rows 5-8
  Plate-6 (Testosterone) Miller units, Mean: 64 Miller units
6.25 µM, single wells
  Plate-6 (Testosterone) Miller units: 55 Miller units and 57 Miller units and 65 Miller units and 80 Miller units
12.5 µM hormone, plate columns 1-6 (WT), mean of plate rows 1-4 (mtrC)
  Miller units, Mean: 166 Miller units
12.5 µM hormone, plate columns 1-6 (WT), plate rows 1-4 (mtrC), single well
  Miller units: 186 Miller units and 164 Miller units and 155 Miller units and 161 Miller units
12.5 µM hormone, plate columns 7-12 (second strain not given), plate rows 1-4 (mtrC), single well
  Miller units: 296 Miller units and 248 Miller units and 237 Miller units and 196 Miller units
12.5 µM hormone, plate columns 7-12 (second strain), mean of plate rows 1-4 (mtrC)
  Miller units, Mean: 244 Miller units
12.5 µM, plate column 4, mean of plate rows 5-8
  Plate-6 (Testosterone) Miller units, Mean: 52 Miller units
12.5 µM, plate column 4, plate rows 5-8, single wells
  Plate-6 (Testosterone) Miller units: 51 Miller units and 50 Miller units and 56 Miller units and 52 Miller units
12.5 µM, plate column 10, mean of plate rows 5-8
  Plate-6 (Testosterone) Miller units, Mean: 62 Miller units
12.5 µM, plate column 10, plate rows 5-8, single wells
  Plate-6 (Testosterone) Miller units: 58 Miller units and 54 Miller units and 63 Miller units and 74 Miller units
25 µM hormone, plate columns 1-6 (WT), mean of plate rows 1-4 (mtrC)
  Miller units, Mean: 178 Miller units
25 µM hormone, plate columns 1-6 (WT), plate rows 1-4 (mtrC), single well
  Miller units: 189 Miller units and 186 Miller units and 165 Miller units and 170 Miller units
25 µM hormone, plate columns 7-12 (second strain not given), plate rows 1-4 (mtrC), single well
  Miller units: 284 Miller units and 276 Miller units and 289 Miller units and 254 Miller units
25 µM hormone, plate columns 7-12 (second strain), mean of plate rows 1-4 (mtrC)
  Miller units, Mean: 276 Miller units
25 µM, plate column 5, mean of plate rows 5-8
  Plate-6 (Testosterone) Miller units, Mean: 63 Miller units
25 µM, plate column 5, plate rows 5-8, single wells
  Plate-6 (Testosterone) Miller units: 68 Miller units and 55 Miller units and 57 Miller units and 70 Miller units
25 µM, plate column 11, mean of plate rows 5-8
  Plate-6 (Testosterone) Miller units, Mean: 65 Miller units
25 µM, plate column 11, plate rows 5-8, single wells
  Plate-6 (Testosterone) Miller units: 64 Miller units and 60 Miller units and 68 Miller units and 67 Miller units
50 µM hormone, plate columns 1-6 (WT), mean of plate rows 1-4 (mtrC)
  Miller units, Mean: 195 Miller units
50 µM hormone, plate columns 1-6 (WT), plate rows 1-4 (mtrC), single well
  Miller units: 222 Miller units and 215 Miller units and 166 Miller units and 177 Miller units
50 µM hormone, plate columns 7-12 (second strain not given), plate rows 1-4 (mtrC), single well
  Miller units: 310 Miller units and 287 Miller units and 255 Miller units and 237 Miller units
50 µM hormone, plate columns 7-12 (second strain), mean of plate rows 1-4 (mtrC)
  Miller units, Mean: 272 Miller units
50 µM, plate column 6, mean of plate rows 5-8
  Plate-6 (Testosterone) Miller units, Mean: 68 Miller units
50 µM, plate column 6, plate rows 5-8, single wells
  Plate-6 (Testosterone) Miller units: 76 Miller units and 71 Miller units and 62 Miller units and 63 Miller units
50 µM, plate column 12, mean of plate rows 5-8
  Plate-6 (Testosterone) Miller units, Mean: 57 Miller units
50 µM, single wells
  Plate-6 (Testosterone) Miller units: 65 Miller units and 49 Miller units and 56 Miller units and 58 Miller units
Mean of plate rows 1-4, plate columns 1-6 (first strain), 6.25 µM hormone
  Miller units, Mean: 69 Miller units
Mean of plate rows 1-4, plate columns 1-6 (first strain), 12.5 µM hormone
  Miller units, Mean: 81 Miller units
Mean of plate rows 1-4, plate columns 1-6 (first strain), 25 µM hormone
  Miller units, Mean: 98 Miller units
Mean of plate rows 1-4, plate columns 1-6 (first strain), 50 µM hormone
  Miller units, Mean: 117 Miller units
Mean of plate rows 1-4, plate columns 7-12 (second strain), 6.25 µM hormone
  Miller units, Mean: 96 Miller units
Mean of plate rows 1-4, plate columns 7-12 (second strain), 12.5 µM hormone
  Miller units, Mean: 102 Miller units
Mean of plate rows 1-4, plate columns 7-12 (second strain), 25 µM hormone
  Miller units, Mean: 112 Miller units
Mean of plate rows 1-4, plate columns 7-12 (second strain), 50 µM hormone
  Miller units, Mean: 119 Miller units
[1]
  Miller units, Mean: 81 Miller units
  Miller units, single replicate: 103 Miller units and 88 Miller units
WT, testosterone 12.5 µM, right block Plate-4
  Miller units, single replicate: 126 Miller units
[2]
  Miller units, Mean: 130 Miller units
  Miller units, single replicate: 144 Miller units and 138 Miller units
[3]
  Miller units, Mean: 134 Miller units
  Miller units, single replicate: 161 Miller units and 150 Miller units
Complemented (MtrR+) strains, increasing hormone
  induction of mtrC expression: could be induced
[4]
  Miller units, Mean: 47 Miller units
  Miller units, single replicate: 46 Miller units
[5]
  Miller units, Mean: 55 Miller units
  Miller units, single replicate: 56 Miller units
Fourth strain (lower plate half, wells 7-12; not named), testosterone 25 µM, right block Plate-4
  Miller units, Mean: 85 Miller units
Fourth strain (lower plate half, wells 7-12; not named), testosterone 50 µM, right block Plate-4
  Miller units, Mean: 79 Miller units
Loss of MtrR or MtrR-D171A strain
  induction of mtrC expression: abrogated
mtrC-lacZ, WT, 6.25 µM hormone
  Miller units, Mean: 141 Miller units
mtrC-lacZ, WT, 12.5 µM hormone
  Miller units, Mean: 166 Miller units
mtrC-lacZ, WT, 25 µM hormone
  Miller units, Mean: 178 Miller units
mtrC-lacZ, WT, 50 µM hormone
  Miller units, Mean: 195 Miller units
[6]
  Miller units: 162 Miller units
  β-galactosidase activity (Miller units): 162 Miller units and 167 Miller units and 161 Miller units and 191 Miller units
[7]
  Miller units: 176 Miller units
  β-galactosidase activity (Miller units): 176 Miller units and 177 Miller units and 161 Miller units and 186 Miller units
[8]
  Miller units: 185 Miller units
  β-galactosidase activity (Miller units): 185 Miller units and 179 Miller units and 168 Miller units and 147 Miller units
[9]
  Miller units: 166 Miller units
  β-galactosidase activity (Miller units): 166 Miller units and 158 Miller units and 156 Miller units
[10]
  Miller units: 108 Miller units and 127 Miller units and 114 Miller units and 153 Miller units
  β-galactosidase activity (Miller units): 108 Miller units and 127 Miller units and 114 Miller units and 153 Miller units
[11]
  Miller units: 125 Miller units and 124 Miller units and 120 Miller units and 149 Miller units
  β-galactosidase activity (Miller units): 125 Miller units and 124 Miller units and 120 Miller units and 149 Miller units
[12]
  Miller units: 133 Miller units and 137 Miller units and 127 Miller units
  β-galactosidase activity (Miller units): 133 Miller units and 137 Miller units and 127 Miller units
[13]
  Miller units: 146 Miller units and 140 Miller units and 175 Miller units
  β-galactosidase activity (Miller units): 146 Miller units and 140 Miller units and 175 Miller units
mtrC-lacZ, ΔmtrR strain, 6.25 µM hormone, single replicate
  β-galactosidase activity (Miller units): 246 Miller units
mtrC-lacZ, ΔmtrR strain, 12.5 µM hormone, single replicate
  β-galactosidase activity (Miller units): 237 Miller units
mtrC-lacZ, ΔmtrR strain, 25 µM hormone, single replicate
  β-galactosidase activity (Miller units): 289 Miller units
mtrC-lacZ, ΔmtrR strain, 50 µM hormone, single replicate
  β-galactosidase activity (Miller units): 255 Miller units
mtrC-lacZ, ΔmtrR, 6.25 µM hormone
  Miller units, Mean: 265 Miller units
mtrC-lacZ, ΔmtrR, 12.5 µM hormone
  Miller units, Mean: 244 Miller units
mtrC-lacZ, ΔmtrR, 25 µM hormone
  Miller units, Mean: 276 Miller units
mtrC-lacZ, ΔmtrR, 50 µM hormone
  Miller units, Mean: 272 Miller units
1 µM
  β-galactosidase activity, Mean: 178 Miller units
  β-galactosidase activity, single replicate: 184 Miller units and 192 Miller units and 127 Miller units and 209 Miller units
10 µM
  β-galactosidase activity, Mean: 206 Miller units
  β-galactosidase activity, single replicate: 290 Miller units and 186 Miller units and 155 Miller units and 194 Miller units
25 µM
  β-galactosidase activity, single replicate: 208 Miller units and 213 Miller units and 178 Miller units and 198 Miller units
50 µM
  β-galactosidase activity, Mean: 224 Miller units
  β-galactosidase activity, single replicate: 262 Miller units and 219 Miller units and 198 Miller units and 217 Miller units
100 µM
  β-galactosidase activity, Mean: 238 Miller units
  β-galactosidase activity, single replicate: 255 Miller units and 223 Miller units and 213 Miller units and 260 Miller units
mtrCDE, WT, testosterone 1 µM, left block Plate-4
  Miller units, Mean: 138 Miller units
mtrCDE, WT, testosterone 10 µM, left block Plate-4
  Miller units, Mean: 235 Miller units
mtrCDE, WT, testosterone 25 µM, left block Plate-4
  Miller units, Mean: 264 Miller units
mtrCDE, WT, testosterone 50 µM, left block Plate-4
  Miller units, Mean: 229 Miller units
mtrCDE, WT, testosterone 100 µM, left block Plate-4
  Miller units, Mean: 248 Miller units
[14]
  Miller units, Mean: 157 Miller units
  Miller units, single replicate: 182 Miller units
[15]
  Miller units, Mean: 190 Miller units
  Miller units, single replicate: 196 Miller units
[16]
  Miller units, Mean: 192 Miller units
  Miller units, single replicate: 225 Miller units and 177 Miller units
[17]
  Miller units, Mean: 201 Miller units
  Miller units, single replicate: 192 Miller units and 186 Miller units
[18]
  Miller units, Mean: 240 Miller units
  Miller units, single replicate: 256 Miller units and 229 Miller units
mtrCDE, third strain (lower plate half, wells 1-6; not named), testosterone 1 µM, left block Plate-4
  Miller units, Mean: 107 Miller units
mtrCDE, third strain (lower plate half, wells 1-6; not named), testosterone 10 µM, left block Plate-4
  Miller units, Mean: 177 Miller units
mtrCDE, third strain (lower plate half, wells 1-6; not named), testosterone 25 µM, left block Plate-4
  Miller units, Mean: 181 Miller units
mtrCDE, third strain (lower plate half, wells 1-6; not named), testosterone 50 µM, left block Plate-4
  Miller units, Mean: 213 Miller units
mtrCDE, third strain (lower plate half, wells 1-6; not named), testosterone 100 µM, left block Plate-4
  Miller units, Mean: 227 Miller units
mtrCDE, ΔmtrR, testosterone 1 µM, left block Plate-4
  Miller units, Mean: 334 Miller units
mtrCDE, ΔmtrR, testosterone 10 µM, left block Plate-4
  Miller units, Mean: 358 Miller units
mtrCDE, ΔmtrR, testosterone 50 µM, left block Plate-4
  Miller units, Mean: 284 Miller units
